# Measurements published in patent publication US8957042B2, “Cancer treatment targeting non-coding RNA overexpression” (The Texas A&M University System, priority 2012, dated 2015).
# Columns and labels:
# HOTAIR = HOTAIR expression (RNA levels, real time PCR) in Panc1 cells; type: cell-based, human; conditions: for HOTAIR expression after siRNA transfection: vs siCT
# Description: (§1) RNA isolation and quantitative PCR: Total RNA was extracted either from pancreatic cancer cell lines or from tissue samples. Five control and siRNA HOTAIR-transfected tissue samples were analyzed, respectively, from xenograft study using mirVana RNA isolation kit from Ambion (Austin, Tex., USA), and quantitative PCR was carried out using iCycler IQTM real-time PCR detection system (Bio-Rad, Hercules, Calif., USA) after reverse transcription to cDNAs. The RT primer sets for HOTAIR, PCDHB5, PCDH10, JAM2, LAMB3, ABL2, SNA1 and LAMC2 were used as described previously (Gupta, R. A., et al., “Long Non-Coding RNA HOTAIR Reprograms Chromatin State to Promote Cancer Metastasis,” Nature 464:1071-1076, 2010). The forward and reverse oligonucleotide primer sequences specifically for HOTAIR amplification and detection are also set forth herein as SEQ ID NOS:1 and 2, respectively.
# [1] = test system: Sp1, Sp3, and Sp4 proteins; experiment: Sp1, Sp3 and Sp4 protein expression in Panc1 cells; type: cell-based, human
# ZBTB10 = ZBTB10 expression in Panc1 cells; type: cell-based, human
# miR-27a = miR-27a expression in Panc1 cells; type: cell-based, human
# MALAT-1 [2] = experiment: MALAT-1 expression (RNA abundance) in Panc1 cells; type: cell-based, human; conditions: doses of 5.0 and 7.0 μM
# Description: (§2) MALAT-1 RNA was detected using forward and reverse oligonucleotides with sequences set forth herein as SEQ ID NOS:7 and 8. Furthermore, MALAT-1 can be detected in serum obtained from pancreatic cancer patients (not shown) and this correlates with the reported high expression of MALAT-1 in pancreatic tumors compared to non-tumor tissues. Subsequent MALAT-1 knockdown studies with RNA interference were conducted using two oligonucleotides (siMALAT-1a and siMALAT-1b), the sequences of which are set forth herein as SEQ ID NOS:5 and 6, respectively. […] Thus, MALAT-1 and MALAT-1-regulated genes play a role in pancreatic cancer cell growth. […] Additional studies on the role of MALAT-1 in cell survival and kinase signaling were performed, because both pathways are affected, in part, by overexpression of growth factors and activating RAS mutations. These aspects are common in many pancreatic cancer cell lines and tumors.
# MALAT-1 [3] = experiment: MALAT-1 expression (RNA abundance) in L3.6pL cells; type: cell-based; conditions: doses of 5.0 and 7.0 μM
# Description: as §2
# ROS = ROS induction in pancreatic cancer cells; type: cell-based; conditions: pancreatic cancer cells (data not shown)
# miR-27a, ZBTB10 = conditions: colon cancer cells; cited from earlier work
# cyclin D1 and cyclin E [4] = experiment: Cyclin D1 and cyclin E mRNA in Panc1 cells; type: cell-based, human; conditions: Panc1 cells (FIG. 2C)
# Description: as §1
# cyclin D1 and cyclin E [5] = experiment: Cyclin D1 and cyclin E mRNA in L3.6pL cells; type: cell-based; conditions: L3.6pL cells (FIG. 2D)
# Description: as §1
# Panc1 cells [6] = experiment: Annexin V apoptosis assay, Panc1; type: cell-based, human; conditions: Panc1 cells transfected with siRNA
# Description: (§3) Boyden chamber cell invasion and apoptosis assays: Pancreatic cancer cells were transfected with either siRNAs (HOTAIR vs. control) or expression vectors (empty vs. HOTAIR) and cell invasion assay was performed as described previously. Cells were transfected with siCT or siHOTAIR and after 72 h, cells were stained for Annexin V using the Vibrant apoptosis assay kit as described.
# L3.6pL cells [7] = experiment: Annexin V apoptosis assay, L3.6pL; type: cell-based; conditions: L3.6pL cells transfected with siRNA
# Description: as §3
# L3.6pL cells [8] = experiment: Xenograft of siRNA-transfected L3.6pL cells in nude mice; type: in vivo
# Description: Xenograft study: L3.6pL cells (6×10^4 ml) were transfected with 100 nM siHOTAIR or siCT using Lipofectamine. After 48 h cells were collected and 1×10^6 cells injected into either side of the flank area of female nude mice (Harlan), and tumor volumes and weights were determined in mice from the siHOTAIR (six mice) or siCT (six mice) groups as described, and siHOTAIR levels were determined by realtime PCR. Tumor volumes were measured (0.5×length×width^2) and after 16 days, the mice were killed and tumor weights were measured and also used for further analysis as described.
# Immunohistochemistry and TUNEL assay: Tissue sections were deparaffinized in xylene and treated with graded series of alcohol and rehydrated in PBS. Antigen retrieval was done using 10 mM sodium citrate (pH 6.0-6.2) and endogenous peroxidase was blocked by 3% hydrogen peroxide in methanol for 6 min. Slides were then incubated with blocking serum (Vecstatin ABC Elite kit, Vector Laboratories, Burlingame, Calif., USA) for 45 min. Samples were then incubated overnight with Ki-67 and PCNA antibodies at 4° C. Sections were then washed in PBST and then incubated with biotinylated secondary antibody followed by streptavidin. The brown staining specific for antibody binding was developed by exposing the avidin and biotinylated peroxidase complex to diaminobenzidine reagent (Vector Laboratories) and sections were then counterstained with hematoxylin (Vector Laboratories). The in situ cell death detection POD kit was used for the TUNEL assay according to the instructions in the protocol for tissue sections.
# GDF15 promoter = GDF15 promoter luciferase assay in Panc1 cells; type: cell-based, human
# Description: siRNA transfection and luciferase assay: Pancreatic cancer cells were transfected with 100 nM of control siRNA or HOTAIR siRNA I (available from Sigma Aldrich, catalogue No. SASI_Hs02—00380445) or HOTAIR siRNA II (available from Sigma Aldrich, catalogue No. SASI_Hs02—00380446) using Lipofectamine 2000 (Invitrogen, Grand Island, N.Y., USA). Panc1 cells were cotransfected with control siRNA or HOTAIR siRNA I and HOTAIR II, and various length of GDF15 luciferase constructs. Luciferase activities were measured after 24 h as described previously. MISSION siRNAs for EZH2 and Suz12 were also purchased from Sigma Aldrich.
# Panc1 cells [9] = experiment: Cell proliferation (cell counting) of Panc1 cells after siRNA transfection; type: cell-based, human; conditions: vs control oligonucleotide
# Description: (§4) Cell proliferation and fluorescence-activated cell sorting analysis and apoptosis: Cells were seeded in 12-well plates and transfected with either appropriate siRNA or expression vectors, and cell numbers were counted at the indicated times using a Coulter Z1 cell counter (Beckman Coulter, Fullerton, Calif., USA). For fluorescence-activated cell sorting analysis, after pancreatic cancer cells were transfected with siRNAs for either control or HOTAIR, cells were stained with propidium iodide solution and were analyzed on a FACS Calibur Flow Cytometer (Becton Dickinsin Systems, Franklin Lakes, N.J., USA).
# L3.6pL cells [10] = experiment: Cell proliferation (cell counting) of L3.6pL cells after siRNA transfection; type: cell-based; conditions: vs control oligonucleotide
# Description: as §4
# [11] = test system: cPARP, EZH2, Cyclin D1, survivin, VEGF; experiment: Expression of cPARP, EZH2, Cyclin D1, survivin, VEGF in Panc1 cells; type: cell-based, human; conditions: Panc1 cells transfected with siRNA
# Panc28 and Panc1 cells = experiment: Transwell migration of pancreatic cancer cells (Boyden chamber); type: cell-based, human; conditions: pancreatic cancer cells (not shown)
# Description: as §3
# Panc28 cells = experiment: Cell proliferation of Panc28 cells after siRNA transfection; type: cell-based, human; conditions: 48 and 72 hours, vs siLamin
# Sp1, Sp3, and Sp4 mRNA = experiment: Sp1, Sp3, Sp4 mRNA knockdown in Panc1 cells; type: cell-based, human; conditions: vs siCT
# Description: (§5) Using short interfering RNAs corresponding to SpTF genes for RNAi assays, expression of the SpTF were successfully knocked down. Sp1 was knocked down using an oligonucleotide with a sequence set forth herein as SEQ ID NO:19. Sp3 was knocked down using an oligonucleotide with a sequence set forth herein as SEQ ID NO:20. Sp4 was knocked down using an oligonucleotide with a sequence set forth herein as SEQ ID NO:21. […] FIG. 6B. In this assay, HOTAIRM was amplified and detected using forward and reverse oligonucleotide sequences set forth herein as SEQ ID NOS:3 and 4, respectively. Additionally, HOTTIP was amplified and detected using forward and reverse oligonucleotide sequences set forth herein as SEQ ID NOS:10 and 11, respectively.
# HOTAIRM1 = HOTAIRM1 expression in Panc1 cells; type: cell-based, human
# Description: as §5
# HOTTIP = HOTTIP expression in Panc1 cells; type: cell-based, human
# Description: as §5
# miR-21 and miR-181b [12] = experiment: Oncogenic miR levels in L3.6pL cells (real time PCR); type: cell-based; conditions: 100 nM siRNA
# Description: (§6) Panc28 and L3.6pL pancreatic cancer cell lines were seeded (6×10^4 per well) in 6-well plates in DMEM:Ham's F-12 medium supplemented with 2.5% charcoal-stripped FBS without antibiotic and left to attach for 1 d. Single and triple Sp siRNA knockdown (iSp1, iSp3, iSp4) along with iLamin as control was performed using LipofectAMINE™2000 transfection reagent as per the manufacturer's protocol to attain 100 nM concentration of siRNA in the media. Cells were left with the transfection mixture for 24-48 hrs before changing to fresh 2.5% DMEM-F12 media. Cells were harvested after 60-72 hrs for protein, mRNA or miRNA. miRNA was extracted using mirVana™ miRNA extraction kit (Applied Biosystems) according to manufacturer's protocol and was used to assess expression of various non-coding RNAs using different primers and determined by real-time PCR.
# miR-21 and miR-181b [13] = experiment: Oncogenic miR levels in Panc28 cells (real time PCR); type: cell-based, human; conditions: 100 nM siRNA
# Description: as §6
compound,measurement,setting,value
"COC(=O)[C@@]1(C)CCC2(C)CC[C@]3(C)C(=CC(=O)[C@@H]4C5(C)C=C(C#N)C(=O)C(C)(C)[C@@H]5CCC43C)C2C1 (stereo partly drawn) [CDODA-Me, methyl 2-cyano-3,11-dioxo-18β-olean-1,12-dien-30-oate]",HOTAIR expression,"HOTAIR; drug treatment, 24 hrs (FIG. 7B)",decreased
same,"Sp1, Sp3, and Sp4 proteins",[1]; 24 hrs (FIG. 7A),downregulate
same,Sp proteins after 48 hrs,[1]; 48 hrs,almost non-detectable
same,"induction of ZBTB10, downregulation of miR-27a and repression of Sp1, Sp3, Sp4 after cotreatment with antioxidants",[1]; cotreatment with DTT or GSH,inhibited
same,ZBTB10 expression,ZBTB10,induction
same,miR-27a,miR-27a,downregulation
same,MALAT-1 expression,MALAT-1 [2],significantly downregulate
same,MALAT-1 expression,MALAT-1 [3],significantly downregulate
same,ROS,ROS,induce ROS
same,ZBTB10,"miR-27a, ZBTB10",increased
same,microRNA (miR)-27a,"miR-27a, ZBTB10",decreased
"siHOTAIR II: HOTAIR siRNA II, Sigma Aldrich catalogue No. SASI_Hs02—00380446 (UGAACACGACUUGGUGUGGTT; chemistry not given here)",expression of cyclin D1 and cyclin E,cyclin D1 and cyclin E [4],decreased expression
same,expression of cyclin D1 and cyclin E,cyclin D1 and cyclin E [5],decreased expression
same,Annexin V staining (apoptosis),Panc1 cells [6],enhanced
same,Annexin V staining (apoptosis),L3.6pL cells [7],enhanced
same,pancreatic tumor weight,"L3.6pL cells [8]; after 16 days, vs siCT",dramatic decrease
same,HOTAIR expression in tumors,"L3.6pL cells [8]; end of study, vs siCT",dramatic decrease
same,pancreatic tumor volume,"L3.6pL cells [8]; up to 16 days, vs siCT",dramatic decrease
same,"luciferase activity, GDF15 promoter constructs -3500 to +41, -1086 to +41 and -474 to +41",GDF15 promoter,decreased
"siHOTTIP: siRNA for HOTTIP, SEQ ID NO:9 (GCACAGAGAUAAUGGCAAAUU; listed as RNA, chemistry not given here)",cell proliferation / cell growth,Panc1 cells [9],reductions in cell growth
same,cell proliferation / cell growth,L3.6pL cells [10],reductions in cell growth
same,Annexin V staining (apoptosis),Panc1 cells [6],increased staining
same,Annexin V staining (apoptosis),L3.6pL cells [7],increased staining
same,PARP cleavage / cPARP,[11],induced expression
same,"expression of EZH2, Cyclin D1, survivin and VEGF",[11],decreased expression
same,reduction in tumor weight,"L3.6pL cells [8]; at sacrifice, vs control",~75%
same,tumor volume,"L3.6pL cells [8]; over ten days, vs control cells",significant reduction
same,transwell migration,Panc28 and Panc1 cells,significantly decreased
"siMALAT-1a: siRNA for MALAT-1 knockdown, SEQ ID NO:5 (GGCAAUAGAGGCCCUUAA; listed as RNA, chemistry not given here)",cell proliferation / cell growth,Panc1 cells [9],significant inhibition
same,cell proliferation,Panc28 cells,significant inhibition
"siMALAT-1b: siRNA for MALAT-1 knockdown, SEQ ID NO:6 (GAAUUCCGGUGAUGCGAGU; listed as RNA, chemistry not given here)",cell proliferation / cell growth,Panc1 cells [9],significant inhibition
same,cell proliferation,Panc28 cells,significant inhibition
"siSp3: siRNA for Sp3, sequence SEQ ID NO:20 (GCGGCAGGUGGAGCCUUCACUTT; chemistry not given here)",HOTAIR expression after siRNA transfection,HOTAIR,significant decrease
same,"mRNA level of the respective Sp (Sp1, Sp3, Sp4)","Sp1, Sp3, and Sp4 mRNA",decreased
same,HOTAIRM1 expression,HOTAIRM1,significant decrease
same,HOTTIP expression,HOTTIP,significant decrease
same,miR-21 expression,miR-21 and miR-181b [12],decrease
same,miR-181b expression,miR-21 and miR-181b [12],decrease
same,miR-21 expression,miR-21 and miR-181b [13],decrease
same,miR-181b expression,miR-21 and miR-181b [13],decrease
"siSp4: siRNA for Sp4, sequence SEQ ID NO:21 (GCAGUGACACAUUAGUGAGCTT; chemistry not given here)",HOTAIR expression after siRNA transfection,HOTAIR,significant decrease
same,"mRNA level of the respective Sp (Sp1, Sp3, Sp4)","Sp1, Sp3, and Sp4 mRNA",decreased
same,HOTAIRM1 expression,HOTAIRM1,significant decrease
same,HOTTIP expression,HOTTIP,significant decrease
same,miR-21 expression,miR-21 and miR-181b [12],decrease
same,miR-181b expression,miR-21 and miR-181b [12],decrease
same,miR-21 expression,miR-21 and miR-181b [13],decrease
same,miR-181b expression,miR-21 and miR-181b [13],decrease
